Results taken from patent publication US6630482B1, “CFTR channel activator compounds and pharmaceutical compositions containing same” (Centre National de la Recherche Scientifique, priority 1996, dated 2003).
Where two headings read alike, the source gives them in different places.

Columns and labels:
CFTR channel [1] = target: T1, CFTR channel (Homo sapiens, UniProt P13569); assay: Efflux of radioactive iodide in recombinant CHO (CFTR+) cells; type: cell-based; design: expressed in transfected cells; host or cells: CHO-K1 cells, vector pNUT; conditions: for activation at 500 µM: read-out: % activation relative to control; for effect on the efflux of iodide / CFTR channel activation: 500 μM
T1 sequence (P13569 whole entry): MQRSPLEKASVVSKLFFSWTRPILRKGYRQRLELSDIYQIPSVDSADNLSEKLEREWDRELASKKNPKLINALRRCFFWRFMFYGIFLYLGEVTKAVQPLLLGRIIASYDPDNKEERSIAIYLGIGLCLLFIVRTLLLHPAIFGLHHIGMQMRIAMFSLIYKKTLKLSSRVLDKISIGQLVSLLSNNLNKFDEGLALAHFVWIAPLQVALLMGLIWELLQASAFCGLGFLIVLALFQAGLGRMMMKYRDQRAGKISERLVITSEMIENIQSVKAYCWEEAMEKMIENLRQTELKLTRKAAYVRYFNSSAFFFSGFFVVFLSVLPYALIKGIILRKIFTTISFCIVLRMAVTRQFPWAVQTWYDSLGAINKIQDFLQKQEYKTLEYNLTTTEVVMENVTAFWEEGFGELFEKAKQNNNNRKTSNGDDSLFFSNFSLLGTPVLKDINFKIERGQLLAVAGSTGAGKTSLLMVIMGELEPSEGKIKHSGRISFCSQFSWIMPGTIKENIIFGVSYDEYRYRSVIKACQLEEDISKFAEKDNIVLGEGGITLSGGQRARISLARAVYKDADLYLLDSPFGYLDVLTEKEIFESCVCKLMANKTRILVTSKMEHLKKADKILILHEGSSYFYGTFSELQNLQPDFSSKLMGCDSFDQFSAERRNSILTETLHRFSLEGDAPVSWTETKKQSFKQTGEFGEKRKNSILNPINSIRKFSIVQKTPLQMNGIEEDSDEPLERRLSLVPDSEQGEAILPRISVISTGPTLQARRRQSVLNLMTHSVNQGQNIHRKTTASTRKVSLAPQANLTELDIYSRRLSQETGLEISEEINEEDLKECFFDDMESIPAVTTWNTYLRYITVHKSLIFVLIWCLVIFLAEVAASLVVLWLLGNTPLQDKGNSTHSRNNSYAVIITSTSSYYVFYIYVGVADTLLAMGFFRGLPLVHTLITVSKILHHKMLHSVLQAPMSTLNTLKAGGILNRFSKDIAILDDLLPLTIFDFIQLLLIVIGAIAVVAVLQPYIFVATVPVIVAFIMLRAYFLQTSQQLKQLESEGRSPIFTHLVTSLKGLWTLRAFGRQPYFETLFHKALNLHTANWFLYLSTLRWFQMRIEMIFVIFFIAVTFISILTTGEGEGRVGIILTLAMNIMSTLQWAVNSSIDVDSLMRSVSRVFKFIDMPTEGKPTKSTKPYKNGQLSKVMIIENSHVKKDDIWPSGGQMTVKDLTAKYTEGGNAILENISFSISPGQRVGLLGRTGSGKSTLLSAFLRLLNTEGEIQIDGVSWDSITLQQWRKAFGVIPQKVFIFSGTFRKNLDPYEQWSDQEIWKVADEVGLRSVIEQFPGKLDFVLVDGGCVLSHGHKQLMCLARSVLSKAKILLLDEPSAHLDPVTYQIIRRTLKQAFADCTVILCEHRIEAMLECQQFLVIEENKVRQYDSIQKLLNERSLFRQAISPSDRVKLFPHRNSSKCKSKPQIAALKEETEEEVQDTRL
Description: (§1) Several types of cells are used for this study: the intestinal lines T84, Caco-2 and HT 29. Chinese hamster ovary (CHO-K1) cells were transfected with the aid of the vector pNUT (Tabcharani et al., 1991) with or without (control cells) incorporation of normal or mutated CFTR cDNA (Chang et al., 1993). The cells are kept in this specific medium and then inoculated at a low density on to glass slides and cultured at 37° C. (5% CO2), before the patch clamping experiments. The survival medium of the cells is composed of αMEM with foetal calf serum (7%) and antibiotics: 50 IU/ml penicillin and 50 μg/ml streptomycin and methotrexate (100 μM to 200 μM).
(§2) This technique enables the kinetics of the exit of iodide to be monitored. The cells are cultured in 12-well plates with a dilution to 1/10 after passage. On day 3, the drugs to be tested are dissolved in medium B (37° C.) according to the required concentration. The wells are washed twice with 1 ml of medium B NaOH, 0.1% glucose, which is then replaced by 1 ml of charging solution for 30 min.
(§3) The operation is repeated over 10 min and the cells are then detached with 1 ml of NaOH 0.1N SDS 0.1%. The contents of each well are collected in a haemolysis tube after agitation for 25 min, and the tubes are counted for 2 min in a gamma counter.
(§4) The study relates to molecules of the benzoquinolizinium family described above. They are tested for their ability to activate the CFTR channel. Screening of molecules as openers of the CFTR channel was carried out by measuring their effect on the efflux of radioactive iodide and on the transmembrane chloride currents (Becq et al., 1993a).
2) CHO cell: efflux of radioactive iodide in
CHO cells transfected with the CFTR chain (labelled CHO-CFTR (+) on FIG. 2B) in the presence or absence of the abovementioned activators.

CHO (CFTR−) cells = assay: Efflux of radioactive iodide in control CHO (CFTR−) cells not transfected with CFTR; type: cell-based, Chinese hamster
Description: CHO cells which have not been transfected with the protein CFTR (labelled CHO-CFTR (−) on FIG. 2 B) in the presence or absence of the abovementioned activators:

CFTR channel [2] = target: T1, CFTR channel; assay: Efflux of radioactive iodide in Xenopus ovocyte injected with cRNA-CFTR; type: cell-based; conditions: Xenopus ovocyte expressing CFTR, 500 μM
intracellular cAMP = assay: Level of intracellular cAMP in recombinant CHO cell; type: cell-based, Chinese hamster; conditions: after 5 min
Description: as §4
FIG. 12: Histograms representing the levels of cAMP (measured in nmol per mg of protein) in the CHO cells which have been transfected with the CFTR gene and have not been activated (basal), or have been activated by forskoline (forskoline), or have been activated by rolipram (rolipram), or have been activated by MPB-07 (MPB-07).

CFTR channel [3] = target: T1, CFTR channel; assay: Efflux of radioactive iodide in HT29 cells; type: cell-based; design: the human colon cell of the line HT29 which expresses the protein CFTR constitutively; endogenous in cells; host or cells: HT29 human colon cells; conditions: 500 μM
Description: as §1, §2, §3

CFTR channel [4] = target: T1, CFTR channel; assay: Patch clamping, CFTR channel activation; type: cell-based; design: expressed in transfected cells; host or cells: CHO-K1 cells, vector pNUT; conditions: rolipram
Description: The patch clamping experiments are carried out on confluent cells. A fragment of the glass slide (cell support) is placed in an experimental chamber (volume 600 μl or 1 ml) on the platen of an inverted microscope fitted with phase contrast illumination (Olympus IMT2). The cell-attached and inside-out configurations are used (Hamill et al., 1981). The experiments are carried out at room temperature (20-22° C.). The currents are amplified with a LIST EPC 7 amplifier (Darmstadt, Germany) (filter of 3 kHz) with a low-pass filter of 2-5 kHz (6-pole Bessel filter) and recorded with a DAT (digital audio tape) after digitalization (16 bits) at 44 kHz. The data are then transferred to an Olivetti M28PC computer. The pipettes are made from glass tubes of 1 mm diameter (Clarke Electromedical Instrument) in two or three stages with a horizontal drawer (Flaming/Brown type, model P-87. Sutter. Inst. Co. USA). The pipettes filled with a solution of 150 mM NaCI have a resistance of between 4 and 12 MΩ. The potentials are expressed as the difference between the potential of the patch electrode and that of the bath. […] The diffusion potentials are evaluated from the potential of the electrode corresponding to a zero current (when the channels are closed). […] To determine the current-voltage ratio, the ionic current amplitudes are measured form amplitude histograms. […]

[5] = efflux of iodide, recombinant CHO (CFTR+) cell, MPB and phenanthrene 500 μM

Oc1cc2ccccc2c2ccccc12 [MPB-25]
activation at 500 µM (CFTR channel [1]): 25%

Nc1cc2cccc[n+]2c2cc(Cl)ccc12 [MPB-03, 6-Amino, 9-Chlorobenzo[c]quinolizinium Chloride]
activation at 500 µM (CFTR channel [1]; [5]): 18%

c1ccc2c(c1)ccc1ccccc12 [phenanthrene, reference compound]
effect on the efflux of iodide / CFTR channel activation (CFTR channel [1]; CHO (CFTR+) cells): does not activate the CFTR channel | activation at 500 µM (CFTR channel [1]; [5]): < 5%

Nc1cc2ccccc2c2ccccc12 [MPB-24]
activation at 500 µM (CFTR channel [1]): 18%

Oc1cc2cccc[n+]2c2c(Cl)cccc12.[Cl-] [MPB-07, 6-Hydroxy, 10-Chlorobenzo[c]quinolizinium Chloride]
effect on the basal level of the efflux of iodide (CHO (CFTR−) cells; 500 μM): do not significantly modify the basal level of the efflux of iodide | effect on the efflux of iodide (CFTR channel [2]): stimulates the efflux of iodide | level of cell cAMP (intracellular cAMP; 500 μM): The same level of cAMP is reached in the presence of the compounds MPB-07 and rolipram | effect on the efflux of iodide / CFTR channel activation (CFTR channel [1]; CHO (CFTR+) cells): comparable in intensity and rate to that induced by forskoline (5 μM) | activation at 500 µM (CFTR channel [1]; [5]): 110% | effect on the efflux of iodide (CFTR channel [3]): triggers an efflux of iodide, with a similar rate and amplitude, which is increased with respect to the basal level

Oc1cc2cccc[n+]2c2cc(Cl)ccc12 [MPB-08, 6-Hydroxy, 9-Chlorobenzo[c]quinolizinium Chloride]
activation at 500 µM (CFTR channel [1]; [5]): 22%

CNc1ccc2oc(C[C@H]3O[C@@]4(CC[C@H]3C)O[C@H]([C@H](C)C(=O)c3ccc[nH]3)[C@H](C)C[C@H]4C)nc2c1C(=O)O [Compound A23187, reference compound]
effect on the basal level of the efflux of iodide (CHO (CFTR−) cells; 10 μM): do not significantly modify the basal level of the efflux of iodide | effect on the efflux of iodide (CFTR channel [1]; CHO (CFTR+) cells, 10 μM): has no effect

Nc1cc2cccc[n+]2c2ccccc12 [MPB-26, 6-Aminobenzo[c]quinolizium]
% activation relative to control (CFTR channel [1]; [5]): 30%

COc1ccc(C2CNC(=O)C2)cc1OC1CCCC1 (centres unmarked) [rolipram]
level of cell cAMP (intracellular cAMP; 10 μM): The same level of cAMP is reached in the presence of the compounds MPB-07 and rolipram | effect as a CFTR activator measured by the flow of iodide (CFTR channel [1]; rolipram): has no effect as a CFTR activator | effect as a CFTR activator measured by patch clamping (CFTR channel [4]): has no effect as a CFTR activator

Oc1cc2cccc[n+]2c2cccc(Cl)c12 [MPB-27, 6-Hydroxy, 7-Chlorobenzo[c]quinolizinium Chloride]
activation at 500 µM (CFTR channel [1]; [5]): 95%

Nc1ncnc2c1nc(Sc1ccc(Cl)cc1)n2[C@@H]1O[C@@H]2COP(=O)(O)O[C@H]2[C@H]1O [c-cpt-AMP, cyclic 8-(4-chlorophenylthio)-adenosine 3′,5′-monophosphate]
effect on the basal level of the efflux of iodide (CHO (CFTR−) cells; 500 μM): has no effect

Oc1cc2cccc[n+]2c2ccccc12 [MPB-05, 6-Hydroxybenzo[c]quinolizinium Chloride]
activation at 500 µM (CFTR channel [1]; [5]): 20%

6-Hydroxbenzo[c]quinolizinium Bromide [MPB-06]
% activation relative to control (CFTR channel [1]; [5]): 53%

C=C[C@@]1(C)CC(=O)[C@]2(O)[C@@]3(C)[C@@H](O)CCC(C)(C)[C@@H]3[C@H](O)[C@H](OC(C)=O)[C@@]2(C)O1 [forskoline]
effect on the basal level of the efflux of iodide (CHO (CFTR−) cells; 5 μM): do not significantly modify the basal level of the efflux of iodide | effect on cAMP, multiplication factor (intracellular cAMP; 5 μM): about 4 | % activation relative to control (CFTR channel [1]; efflux of iodide, recombinant CHO (CFTR+) cell, forskoline 5 μM): 109%

Nc1cc2cccc[n+]2c2cccc(Cl)c12 [MPB-04, 6-Amino, 7-Chlorobenzo[c]quinolizinium Chloride]
activation at 500 µM (CFTR channel [1]; [5]): 11%
